Columns and labels:
HTwist and MSP cells [1] = test: Boyden chamber migration assay, HTwist and MSP cells; type: cell-based, human; settings: for effect on migration: 10 μM, to a similar extent as added BMP4 protein
Method: (§1) FIGS. 3A-3E. Autocrine Signaling controls migration and mammosphere formation.
FIGS. 10A-10E. […] (FIG. 10C) Mammosphere assay: HTwist cells were treated daily during mammosphere formation (5 days) with proteins as described in (B); *control vs. single treatment, p<1×10^−5, **single vs. double-treatment, p<0.01, n(mammospheres)/1000 cells, n=6, (FIG. 10D) Migration Assay: HTwist and MSP cells were seeded into Boyden Chambers in the presence of TGF-beta Receptor I inhibitors A83-01 and SB431542 (SB43, both at 10 μM). (FIG. 10E) Mammosphere Assay: HTwist and MSP were treated daily during mammosphere formation (5 days) with BMP4 (0.5 μg/ml), SB431542 (10 μM) or a combination of both, n(mammospheres)/1000 cells, n=6.
Migration and invasion assays. For migration assays, 2×10^4 cells were seeded into 24-well cell culture inserts with 8-μm pores (Boyden Chambers, BD Falcon). For invasion assays, matrigel-coated inserts (BD Falcon) were used. After 12-48 hr, the cells on the upper surface of the filters were removed with a cotton swab. For visualization, cells on lower filter surfaces were fixed and stained with a Diff-Quick staining kit (Dade Behring).

HTwist and MSP cells [2] = test: Mammosphere assay, HTwist and MSP cells; type: cell-based, human; settings: 10 μM; to a similar extent as added BMP4 protein
Method: FIGS. 10A-10E. […] (FIG. 10E) Mammosphere Assay: HTwist and MSP were treated daily during mammosphere formation (5 days) with BMP4 (0.5 μg/ml), SB431542 (10 μM) or a combination of both, n(mammospheres)/1000 cells, n=6.
(§2) Mammosphere and tumorsphere assay. Assays were performed as previously described with modifications (Dontu et al., 2003): 1000 cells/well were seeded in 96-well ultra-low adhesion plates (Corning) in MEGM medium containing 1.3% methylcellulose (Stem Cell Technologies) supplemented with 20 ng/ml EGF, 10 ng/ml bFGF (both Sigma) and B27 (Gibco). Primary spheres were dissociated by trypsinization and replated for secondary sphere formation after a period of 5-7 days.

26 other kinases = settings: cited from earlier work
GSK3 = settings: ATP-competitive manner; cited from earlier work
Cdk-1/cyclin B = settings: at >100 μM; cited from earlier work
CK-II = settings: at >100 μM; cited from earlier work
PKA = settings: at >100 μM; cited from earlier work
PKC = settings: at >100 μM; cited from earlier work
HMLE^24+ cells = test: Boyden chamber migration assay, HMLE^24+ cells; type: cell-based, human; settings: 0.5 μg/ml in growth medium
Method: as §1
FIGS. 5A-5H. Concomitant stimulation of Wnt and TGF-beta pathways allows HMLE^24+ cells to enter into a mesenchymal and SC-like state. (FIG. 5A) RT-PCR: N-Cadherin, Zeb1 and Zeb2, L32 was loading control, n=3. Prior RNA isolation, HMLE^24+-shGFP or -shSFRP1 (stable knockdown of SFRP1, FIG. 12A) cells were treated for 3 days with daily doses of indicated factors: anti-DKK1 antibody (10 μg/ml), anti-E-Cadherin antibody (1 μg/ml), TGF-beta 1 (5 ng/ml), Wnt5a (250 ng/ml), (FIG. 5B) Brightfield microscopy: images of control, TGF-beta- and iEMT-cocktail treated HMLE^24+ cells after 14 days of treatment as indicated (see also FIG. 12D). (FIG. 5C) RT-PCR: Zeb1, Zeb2, E-Cadherin and N-Cadherin, L32 was loading control, n=3. After 14 day treatment, cells were expanded in absence of further stimulation for 4 passages. Shown are PBS-treated control HMLE^24+-shGFP and HMLE^24+-shSFRP1 cells, two HMLE^24+-shGFP cultures treated with TGF-beta 1 (TGF-β-a and -b), two HMLE^24+-shSFRP1 cultures treated with the iEMT-cocktail (iEMT-a and -b). (FIG. 5D) Immunoblot: EMT markers and associated autocrine pathways, cells generated as described in (C). (FIG. 5E) Migration (Boyden Chamber Assay) and Mammosphere Assay: cells generated as indicated in (C), *control vs. TGF-beta treatment, p<1×10^−4, **control vs. iEMT-treatment, p<1×10^−9, n(migration)=3, n(mammospheres)/1000 cells, n=7. (FIG. 5F) Flow cytometry: CD44 and CD24 cell-surface marker expression in control, TGF-beta-a and iEMT-a cells generated as described in (C). (FIG. 5G) Lung metastasis: cells expanded for 8 passages after cessation of treatment as described in (C) were transformed with RAS; 1.0×10^5 cells were injected into the mammary fat pads of mice; GFP-labeled metastases on the surface of the lungs were quantified; *control vs. all other groups, p<0.05, n=5 mice/group. […]

MSP cells = test: Mammosphere assay, MSP cells; type: cell-based, human; settings: added daily for 5 days (FIG. 3D)
Method: as §1, §2

With `Cc1cccc(-c2nn(C(=S)Nc3ccccc3)cc2-c2ccnc3ccccc23)n1` [A83-01, reference compound] the effect on migration (HTwist and MSP cells [1]) was “attenuated” and the “effect on mammosphere formation” value (HTwist and MSP cells [2]) was “attenuated”.

For `COc1ccc(CNC(=O)Nc2ncc([N+](=O)[O-])s2)cc1` [AR-A014418, N-(4-Methoxybenzyl)-N′-(5-nitro-1,3-thiazol-2-yl)urea], the “inhibition of 26 other kinases” value (26 other kinases) is listed as “does not significantly inhibit” and the Ki (GSK3) is listed as […].

With `NC(=O)c1ccc(-c2nc(-c3ccc4c(c3)OCO4)c(-c3ccccn3)[nH]2)cc1` [SB431542, reference compound] the effect on migration (HTwist and MSP cells [1]) was “attenuated” and the “effect on mammosphere formation” value (HTwist and MSP cells [2]) was “attenuated”.

For `Cn1sc(=O)n(Cc2ccccc2)c1=O` [TDZD-8, 4-Benzyl-2-methyl-1,2,4-thiadiazolidine-3,5-dione], the “inhibition of Cdk-1/cyclin B” value (Cdk-1/cyclin B) is listed as “does not inhibit”, the “inhibition of CK-II” value (CK-II) is listed as “does not inhibit” and the “inhibition of PKA” value (PKA) is listed as “does not inhibit”. The “inhibition of PKC” value (PKC) was “does not inhibit”.

B1: DKK1: Recombinant human DKK1 protein (R&D Systems), secreted antagonist of canonical Wnt pathway (protein, UniProt O94907 32-266, looked up)
Dickkopf-related protein 1: TLNSVLNSNAIKNLPPPLGGAAGHPGSAVSAAPGILYPGGNKYQTIDNYQPYPCAEDEECGTDEYCASPTRGGDAGVQICLACRKRRKRCMRHAMCCPGNYCKNGICVSSDQNHFRGEIEETITESFGNDHSTLDGYSRRTTLSSKMYHTKGQEGSVCLRSSDCASGLCCARHFWSKICKPVLKEGQVCTKHRRKGSHGLEIFQRCYCGEGLSCRIQKDHHQASNSSRLHTCQRH
With B1 the “motility of HMLE^24+ cells upon addition of protein” value (HMLE^24+ cells) was “not further reduced”, the reduction of migration (HTwist and MSP cells [1]; at the highest concentration) was 10 fold and the “reduction of primary mammosphere number” value (MSP cells) was 20%.

Source: US9308238B2, “Compositions and methods for modulating EMT and uses thereof” (Whitehead Institute for Biomedical Research, priority 2010, dated 2016)
